Reference: PubChem BioAssay (NCI)
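Compound exposure: 48 hours, 5 concentrations, 96-well plates. GI50 marks 50% less growth. TGI denotes the concentration required for complete inhibition of growth.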

Legend:
Assay in all cases: growth of human tumour cells (NCI), 48 h
HCT-15 colon = test system: HCT-15 colon
SK-MEL-28 melanoma = test system: SK-MEL-28 melanoma
RXF 393 renal = test system: RXF 393 renal
HL-60(TB) leukemia = test system: HL-60(TB) leukemia
HS 578T breast = test system: HS 578T breast
SR leukemia = test system: SR leukemia
T-47D breast = test system: T-47D breast
SF-295 CNS = test system: SF-295 CNS
NCI-H23 lung = test system: NCI-H23 lung
ACHN renal = test system: ACHN renal
NCI-H460 lung = test system: NCI-H460 lung
SNB-75 CNS = test system: SNB-75 CNS
K-562 leukemia = test system: K-562 leukemia
M14 melanoma = test system: M14 melanoma
A498 renal = test system: A498 renal
EKVX NSCLC = test system: EKVX NSCLC
A549 NSCLC = test system: A549 NSCLC
NCI-H522 lung = test system: NCI-H522 lung
COLO 205 colon = test system: COLO 205 colon
CAKI-1 renal = test system: CAKI-1 renal
NCI/ADR-RES ovarian = test system: NCI/ADR-RES ovarian
RPMI-8226 leukemia = test system: RPMI-8226 leukemia
SF-539 CNS = test system: SF-539 CNS
OVCAR-8 ovarian = test system: OVCAR-8 ovarian
OVCAR-5 ovarian = test system: OVCAR-5 ovarian
DU-145 prostate = test system: DU-145 prostate
SK-MEL-5 melanoma = test system: SK-MEL-5 melanoma
OVCAR-3 ovarian = test system: OVCAR-3 ovarian
BT-549 breast = test system: BT-549 breast
NCI-H226 lung = test system: NCI-H226 lung
CCRF-CEM leukemia = test system: CCRF-CEM leukemia
SW-620 colon = test system: SW-620 colon
HT29 colon = test system: HT29 colon
PC-3 prostate = test system: PC-3 prostate
SNB-19 CNS = test system: SNB-19 CNS
SK-OV-3 ovarian = test system: SK-OV-3 ovarian
UACC-257 melanoma = test system: UACC-257 melanoma
SF-268 CNS = test system: SF-268 CNS
KM12 colon = test system: KM12 colon
UACC-62 melanoma = test system: UACC-62 melanoma
U251 CNS = test system: U251 CNS
UO-31 renal = test system: UO-31 renal
MDA-MB-231 breast = test system: MDA-MB-231 breast
LOX IMVI melanoma = test system: LOX IMVI melanoma
MCF7 breast = test system: MCF7 breast
786-0 renal = test system: 786-0 renal
TK-10 renal = test system: TK-10 renal
MOLT-4 leukemia = test system: MOLT-4 leukemia
IGROV1 ovarian = test system: IGROV1 ovarian
HOP-62 NSCLC = test system: HOP-62 NSCLC
SN12C renal = test system: SN12C renal
MDA-MB-435 = test system: MDA-MB-435
HCC-2998 colon = test system: HCC-2998 colon
HOP-92 NSCLC = test system: HOP-92 NSCLC
SK-MEL-2 melanoma = test system: SK-MEL-2 melanoma
HCT-116 colon = test system: HCT-116 colon

CC(=O)OC1Oc2ccc(C)cc2-c2oc(=O)c(-c3cc4ccccc4oc3=O)cc21 (configuration not stated)
GI50 (HCT-15 colon): 1.87 µM
TGI (HCT-15 colon): 11.6 µM
GI50 (SK-MEL-28 melanoma): 5.84 µM
TGI (SK-MEL-28 melanoma): 27.1 µM
GI50 (RXF 393 renal): 3.01 µM
TGI (RXF 393 renal): 14.3 µM
GI50 (HL-60(TB) leukemia): 0.822 µM
TGI (HL-60(TB) leukemia): 3.08 µM
GI50 (HS 578T breast): 0.142 µM
TGI (HS 578T breast): 8.09 µM
GI50 (SR leukemia): 0.571 µM
TGI (SR leukemia): 2.04 µM
GI50 (T-47D breast): 1.5 µM
TGI (T-47D breast): 6.08 µM
GI50 (SF-295 CNS): 2.13 µM
TGI (SF-295 CNS): 13 µM
GI50 (NCI-H23 lung): 2.82 µM
TGI (NCI-H23 lung): 12 µM
GI50 (ACHN renal): 3.06 µM
TGI (ACHN renal): 11.4 µM
GI50 (NCI-H460 lung): 2.64 µM
TGI (NCI-H460 lung): 17.8 µM
GI50 (SNB-75 CNS): 2.88 µM
TGI (SNB-75 CNS): 14.4 µM
GI50 (K-562 leukemia): 2.1 µM
TGI (K-562 leukemia): 14.1 µM
GI50 (M14 melanoma): 1.2 µM
TGI (M14 melanoma): 2.78 µM
GI50 (A498 renal): 0.612 µM
TGI (A498 renal): 4.07 µM
GI50 (EKVX NSCLC): 6.02 µM
TGI (EKVX NSCLC): 23.8 µM
GI50 (A549 NSCLC): 4.55 µM
TGI (A549 NSCLC): 20.8 µM
GI50 (NCI-H522 lung): 8.96 µM
TGI (NCI-H522 lung): 34.6 µM
GI50 (COLO 205 colon): 2.77 µM
TGI (COLO 205 colon): 15.7 µM
GI50 (CAKI-1 renal): 2.56 µM
TGI (CAKI-1 renal): 7.69 µM
GI50 (NCI/ADR-RES ovarian): 2.54 µM
TGI (NCI/ADR-RES ovarian): 18.1 µM
GI50 (RPMI-8226 leukemia): 0.943 µM
TGI (RPMI-8226 leukemia): 2.41 µM
GI50 (SF-539 CNS): 2.07 µM
TGI (SF-539 CNS): 6.21 µM
GI50 (OVCAR-8 ovarian): 3.8 µM
TGI (OVCAR-8 ovarian): 8.16 µM
GI50 (OVCAR-5 ovarian): 3.38 µM
TGI (OVCAR-5 ovarian): 21 µM
GI50 (DU-145 prostate): 1.92 µM
TGI (DU-145 prostate): 8.1 µM
GI50 (SK-MEL-5 melanoma): 2.67 µM
TGI (SK-MEL-5 melanoma): 11.6 µM
GI50 (OVCAR-3 ovarian): 1.19 µM
TGI (OVCAR-3 ovarian): 8.15 µM
GI50 (BT-549 breast): 3.03 µM
TGI (BT-549 breast): 8.86 µM
GI50 (NCI-H226 lung): 4.61 µM
TGI (NCI-H226 lung): 16.5 µM
GI50 (CCRF-CEM leukemia): 1.38 µM
TGI (CCRF-CEM leukemia): 5.42 µM
GI50 (SW-620 colon): 6.05 µM
TGI (SW-620 colon): 29.9 µM
GI50 (HT29 colon): 2.08 µM
TGI (HT29 colon): 34 µM
GI50 (PC-3 prostate): 2.13 µM
TGI (PC-3 prostate): 8.54 µM
GI50 (SNB-19 CNS): 3.82 µM
TGI (SNB-19 CNS): 25.5 µM
GI50 (SK-OV-3 ovarian): 1.8 µM
TGI (SK-OV-3 ovarian): 8.57 µM
GI50 (UACC-257 melanoma): 8.52 µM
TGI (UACC-257 melanoma): 27.4 µM
GI50 (SF-268 CNS): 3.27 µM
TGI (SF-268 CNS): 12.2 µM
GI50 (KM12 colon): 1.43 µM
TGI (KM12 colon): 5.94 µM
GI50 (UACC-62 melanoma): 2.57 µM
TGI (UACC-62 melanoma): 9.19 µM
GI50 (U251 CNS): 2.67 µM
TGI (U251 CNS): 26.8 µM
GI50 (UO-31 renal): 7.9 µM
TGI (UO-31 renal): 29.8 µM
GI50 (MDA-MB-231 breast): 1.83 µM
TGI (MDA-MB-231 breast): 5.67 µM
GI50 (LOX IMVI melanoma): 1.2 µM
TGI (LOX IMVI melanoma): 3.71 µM
GI50 (MCF7 breast): 1.98 µM
TGI (MCF7 breast): 7.01 µM
GI50 (786-0 renal): 1.92 µM
TGI (786-0 renal): 7.74 µM
GI50 (TK-10 renal): 1.47 µM
TGI (TK-10 renal): 7.93 µM
GI50 (MOLT-4 leukemia): 1.8 µM
TGI (MOLT-4 leukemia): 3.99 µM
GI50 (IGROV1 ovarian): 4 µM
TGI (IGROV1 ovarian): 37.7 µM
GI50 (HOP-62 NSCLC): 3.77 µM
TGI (HOP-62 NSCLC): 12.8 µM
GI50 (SN12C renal): 2.77 µM
TGI (SN12C renal): 9.89 µM
GI50 (MDA-MB-435): 0.985 µM
TGI (MDA-MB-435): 2.7 µM
GI50 (HCC-2998 colon): 2.43 µM
TGI (HCC-2998 colon): 9.33 µM
GI50 (HOP-92 NSCLC): 1.12 µM
TGI (HOP-92 NSCLC): 3.61 µM
GI50 (SK-MEL-2 melanoma): 8.14 µM
TGI (SK-MEL-2 melanoma): 40.7 µM
GI50 (HCT-116 colon): 2.08 µM
TGI (HCT-116 colon): 8.62 µM
